The test system of one test is met18b-2 cells. The following applies: cited from earlier work.
Test [1] addresses farnesyl protein transferase (Homo sapiens, UniProt P49354+P49356). Particulars: literature; cited from earlier work.
For test [2], the system named is protein farnesyl transferase in cells. The following applies: cited from earlier work.
For test [3], the system named is human adenocarcinoma cell line PSN-1. The following applies: PSN-1 cells, altered K-ras and p53 genes; cited from earlier work.
The test system of a further test is tumors in nude mice. Particulars: cited from earlier work.
Test [4] deals with RatI cells transformed with viral H-ras. The following applies: cited from earlier work.
Test [5] relates to Rap1A/K-rev processing in v-Ha-ras transformed NIH3T3 cells. In words: Protein processing assay in intact cells: Rap1A/K-rev. Format: cell-based. Particulars: 48 hr, western blot. For orientation: Immunoblotting shows a protein as a band on a membrane.
Procedure: Its selectivity towards FT as compared to GGT in whole cells, was determined by its relative inhibitory effects on Ras farnesylation and on Rap1A/Krev geranylgeranylation (Casey, J. Lipid Res. 1992, 33, 1731-1740; Cox et al., Curr. Opin. Cell Biol. 1992, 4, 1008-1016; Garcia et al., J. Biol. Chem. 1993, 268, 18415-18418; and Vogt et al., J. Biol. Chem. 1995, 270, 660-664), respectively. v-Ha-ras transformed NIH3T3 cells were incubated with lovastatin or increasing concentrations of the inhibitor. Cells were lysed and the processed and unprocessed forms of Ras or Rap1A were separated by SDS-PAGE and immunoblotted with anti-Ras or anti-Rap1A antibodies, respectively.
To test the selectivity of compound 12 towards FT in whole cells, the post-translational processing of an endogenous geranylgeranylated protein, Rap1A/K-rev, was analyzed.
v-Ha-ras transformed NIH3T3 fibroblasts were treated with 15 mM lovastatin or the indicated concentrations of compound 12 or vehicle (0.25 mM DTT, 0.25% DMSO), for 48 hr. Cells were lysed (Garcia et al., J. Biol. Chem. 1993, 268, 18415-18418) in 1% Nonidet P-40, 5 mM TRIS.HCl pH 8.0, 5 mM EDTA, 1 mM phenylmethylsulfonyl fluoride, 10 mg/ml aprotonin, 10 mg/ml soybean trypsin inhibitor and 313 mg/ml benzamidine. The lysate was separated by centriflgation and the supernatant used as cell extract. […]
Test [6] concerns Ras processing in v-Ha-ras transformed NIH3T3 cells. In words: Protein processing assay in intact cells: Ras. Format: cell-based. The following applies: 48 hr, western blot, compared with vehicle.
Procedure: Its selectivity towards FT as compared to GGT in whole cells, was determined by its relative inhibitory effects on Ras farnesylation and on Rap1A/Krev geranylgeranylation (Casey, J. Lipid Res. 1992, 33, 1731-1740; Cox et al., Curr. Opin. Cell Biol. 1992, 4, 1008-1016; Garcia et al., J. Biol. Chem. 1993, 268, 18415-18418; and Vogt et al., J. Biol. Chem. 1995, 270, 660-664), respectively. v-Ha-ras transformed NIH3T3 cells were incubated with lovastatin or increasing concentrations of the inhibitor. Cells were lysed and the processed and unprocessed forms of Ras or Rap1A were separated by SDS-PAGE and immunoblotted with anti-Ras or anti-Rap1A antibodies, respectively. Lovastatin is a compound which blocks the processing of isoprenylated proteins in cells by inhibiting an early step of the isoprenoid biosynthetic pathway, and therefore serves as a positive control for the inhibition of both geraylgeranylation and farnesylation (Kohl et al., Science 1993, 260, 1934-1937; Garcia et al., J. Biol. Chem. 1993, 268, 18415-18418; Vogt et al., J. Biol. Chem. 1995, 270, 660-664).
After 48 hr of incubation, cell extracts were separated on SDS-PAGE and immunoblotted with anti-Ras antibody.
Cells were lysed (Garcia et al., J. Biol. Chem. 1993, 268, 18415-18418) in 1% Nonidet P-40, 5 mM TRIS.HCl pH 8.0, 5 mM EDTA, 1 mM phenylmethylsulfonyl fluoride, 10 mg/ml aprotonin, 10 mg/ml soybean trypsin inhibitor and 313 mg/ml benzamidine. The lysate was separated by centriflgation and the supernatant used as cell extract. Total protein was separated by SDS-PAGE (40 mg/lane) in 15% acrylamide (0.4% bis-acrylamide) gels, transferred onto nitrocellulose (Schleicher & Schuell, optitran BA-S 85) and probed with anti-Ras antibody Y13-259, or monoclonal anti-Rap1A/K-rev antibody (transduction laboratories). The western blots were visualized using an enhanced chemiluminescence (ECL) detection system.
Test [7] concerns MMTV-v-Ha-ras transgenic mice bearing palpable tumors. The following applies: daily administration; cited from earlier work.
In another test the test system is v-ras-transformed cells. Particulars: cited from earlier work.
Test [8] has as its system Ras processing in cells transformed with v-ras. Particulars: cited from earlier work.
Test [9] deals with cells transformed by either v-raf or v-mos oncogenes. Particulars: cited from earlier work.

Molecules are shown by their SMILES.

On to `COC(=O)[C@H](CCSC)NC(=O)CN1C(=O)C(N(C)C(=O)[C@@H](N)CS)N=C(c2ccccc2)c2ccccc21` (some centres unmarked) [BZA-5B], for which, in the test with met18b-2 cells, the “inhibitory potency in cells versus parent compound BZA-2B” value was “much more potent inhibitor”.

Turning to `CC[C@H](C)[C@@H](CO[C@@H](Cc1ccccc1)C(=O)N[C@@H](CCS(C)(=O)=O)C(=O)OC)NC[C@@H](N)CS` [L-739,749], the “farnesyl protein transferase inhibitory potency in vitro” value in test [1] was “moderate inhibitor”. In test [2], the “inhibitory activity in cells compared to compound L-739,750” value was “superior inhibitory activity”. Besides, the anchorage-independent growth result in [3] was “inhibit the anchorage-independent growth”; in test [4] it was “suppressing the anchorage-independent growth”. The growth of tumors result in the test with tumors in nude mice is given as “suppress the growth of tumors”.

With `CC[C@H](C)C(=O)O[C@H]1C[C@@H](C)C=C2C=C[C@H](C)[C@H](CC[C@@H]3C[C@@H](O)CC(=O)O3)[C@H]21` [lovastatin, reference compound], the “effect on Rap1A/K-rev processing” value in test [5] was “did inhibit Rap1A/K-rev processing”. The “effect on Ras processing” value in test [6] is given as “increased amount of unprocessed Ras versus processed Ras”.

On to `CC[C@H](C)[C@@H](CO[C@@H](Cc1ccccc1)C(=O)N[C@@H](CCS(C)(=O)=O)C(=O)OC(C)C)NC[C@@H](N)CS` [L-744,832], for which, in [1], the “farnesyl protein transferase inhibitory potency in vitro” value was “potent and selective inhibitor”. Further, the tumor response result in [7] was “caused tumor regression”.

For `CC[C@H](C)[C@H](NC[C@@H](NC[C@@H](N)CS)[C@@H](C)CC)C(=O)NC1CCOC1=O` (stereo partly drawn) [L-731,734, N-{2(S)-[2(R)-amino-3-mercaptopropylamino]-3(S)-methylpentyl}isoleucyl-homoserine lactone], the “farnesyl protein transferase inhibitory potency in vitro” value in test [1] is “less potent”. The “colony formation in soft agar” value with v-ras-transformed cells is given as “decreasing the ability of v-ras-transformed cells to form colonies”. Further, the “effect on Ras processing in cells” value in test [8] is “efficiently inhibit Ras processing”. Moreover, the “efficiency of colony transformation” value in test [9] was “no effect on the efficiency of colony transformation”.
